Measurements published in patent publication US10568819B2, “Skin enhancing compositions and methods” (Sytheon Limited, priority 2016, dated 2020).
Read-outs that look alike come from different tables or passages of the source.

How the values were obtained:
COL14A1 [1] = test: PCR array gene expression, COL14A1; type: cell-based
Description: (§1) In light of the efficacy of the aryl alkanones ire addressing many of the molecular/biomolecular processes damaged by UV exposure, a study was undertaken to assess whether these compounds would also be effective in addressing symptoms associated with non-UV induced skin aging including chronological aging as well as disease conditions that likewise adversely affect skin processes. The studies conducted involves DNA microarray, PCR array, cell culture, enzyme inhibitory activity.

ITGB3 = test: PCR array gene expression, ITGB3; type: cell-based
Description: as §1

Keratinocyte = test: UVA-induced delayed formation of CPDs (dCPDs) in keratinocytes; type: cell-based; conditions: 25 μg/ml
Method: (§2) A second study was carried out, similar to the first, except that this time the analysis was in assessing the efficacy, if any, of the presently taught aryl alkanones in reducing UVA-induced delayed formation of CPDs (dCPDs).

COL11A1 = test: PCR array gene expression, COL11A1; type: cell-based
Description: as §1

iNOS = iNOS (Homo sapiens, UniProt P35228); test: Reduction of iNOS activity; type: biochemical
iNOS, sequence (P35228 whole entry, species assumed): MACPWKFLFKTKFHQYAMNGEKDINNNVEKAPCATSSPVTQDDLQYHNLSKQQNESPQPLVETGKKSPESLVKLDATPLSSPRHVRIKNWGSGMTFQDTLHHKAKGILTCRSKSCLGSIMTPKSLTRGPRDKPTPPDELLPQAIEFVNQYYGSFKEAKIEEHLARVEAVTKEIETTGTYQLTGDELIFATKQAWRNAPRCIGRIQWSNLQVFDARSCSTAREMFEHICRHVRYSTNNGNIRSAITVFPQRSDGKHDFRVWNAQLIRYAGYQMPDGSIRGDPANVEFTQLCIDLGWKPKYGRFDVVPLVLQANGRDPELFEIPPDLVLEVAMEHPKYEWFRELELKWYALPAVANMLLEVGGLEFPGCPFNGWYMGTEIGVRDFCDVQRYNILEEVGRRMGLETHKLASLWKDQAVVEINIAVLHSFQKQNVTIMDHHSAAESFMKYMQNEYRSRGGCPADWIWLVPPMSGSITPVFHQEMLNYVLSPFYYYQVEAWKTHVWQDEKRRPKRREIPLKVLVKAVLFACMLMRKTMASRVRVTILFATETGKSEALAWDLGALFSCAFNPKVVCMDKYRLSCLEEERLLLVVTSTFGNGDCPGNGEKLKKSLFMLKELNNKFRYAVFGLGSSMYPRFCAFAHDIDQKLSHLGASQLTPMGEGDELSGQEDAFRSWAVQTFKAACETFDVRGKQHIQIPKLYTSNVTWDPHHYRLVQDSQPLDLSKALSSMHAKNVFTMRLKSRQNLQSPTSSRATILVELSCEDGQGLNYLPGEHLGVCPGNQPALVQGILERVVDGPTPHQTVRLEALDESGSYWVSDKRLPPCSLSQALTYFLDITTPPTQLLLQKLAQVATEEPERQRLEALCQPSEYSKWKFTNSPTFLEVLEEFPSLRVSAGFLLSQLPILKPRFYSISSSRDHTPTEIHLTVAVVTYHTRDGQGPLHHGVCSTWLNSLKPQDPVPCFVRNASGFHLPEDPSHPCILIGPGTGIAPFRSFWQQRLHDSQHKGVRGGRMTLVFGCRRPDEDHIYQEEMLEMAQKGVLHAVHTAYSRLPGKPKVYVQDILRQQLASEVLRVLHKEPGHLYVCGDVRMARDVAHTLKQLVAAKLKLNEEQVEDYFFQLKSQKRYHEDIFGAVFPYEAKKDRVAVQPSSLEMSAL
Description: Accordingly, an investigation was undertaken to assess the efficacy of compounds according to the present teaching as compared to compounds that are closely structurally related thereto in inhibiting NO product.

ITGA2 = test: PCR array gene expression, ITGA2; type: cell-based
Description: as §1

Collagen type 4 = test: Collagen 4 boosting in human dermal fibroblasts; type: cell-based; conditions: HDF, incubation time of 6 days
Method: In this study, an investigation was performed in relation to the ability, if any, of the aryl alkanones to boost the production of Collagens 1, 3 and 4 proteins. […] In this study, the cells used were human dermal fibroblasts (HDF), passage 12 (Cell Applications, San Diego, Calif.) which underwent an incubation time of 6 days.

human dermal fibroblasts = test: UVA-induced plasma membrane disruption (Mitochondrial ToxGlo Assay); type: cell-based; conditions: 24 hour Pre-incubation
Method: The study was conducted in accordance with the protocols of Berridge et al, (M V Berridge & A S Tan, Characterization of the cellular reduction of 3-(4,5-dimethylthiazol-2-yl)-2,5-diphenyltetrazolium bromide (MTT): subcellular localization, substrate dependence, and involvement of mitochondrial electron transport in MTT reduction, Arch. Biochem. Biophys. 303:474-482, 1993) and Voigt (W Voigt, Sulforhodamine B assay and chemosensitivity, Methods Mol Med, 110:39-48, 2005). Cellular metabolism is determined using the MTT assay to measure the activity of mitochondrial dehydrogenases, such as succinate dehydrogenase, which are implicated in the respiratory electron transport chain in mitochondria [M V Berridge & Tan Biochem Biophys, 303:474-482, 1993]. Additionally, the samples were subject to the Mitochondrial ToxGlo Assay (Promega Technical Manual, G8000 and G8001), which is a cell-based assay method that has been developed to quantify potential mitochondrial dysfunction as a result of xenobiotic exposure, using a sequential-addition, multiplexed chemistry.
Table 8 presents the result on the effect of UVA radiation on cell metabolism 3 hours after irradiation. As indicated, Compound 1 improves cell metabolism, even at a very low use concentration. Table 9 presents the effect of 24 hour pre-incubation on UVA-induced mitochondrial damage measured by ATP production in human dermal fibroblasts. […] Finally. Table 10 presents the effect of 24 hour pre-incubation on UVA-induced plasma membrane disruption in human dermal fibroblasts. As indicated, Compound 1 almost completely reversed plasma membrane disruption, again at a very low use concentration.

Fibroblasts = test: UVA-induced delayed formation of CPDs (dCPDs) in fibroblasts; type: cell-based; conditions: 25 μg/ml, product incubated for 24 hrs. plus UVA irradiation
Method: as §2

ITGA1 = test: PCR array gene expression, ITGA1; type: cell-based
Description: as §1

COL6A1 = test: PCR array gene expression, COL6A1; type: cell-based
Description: as §1

MSH6 = test: DNA microarray gene expression, MSH6; type: cell-based
Description: as §1

COL1A1 = test: DNA microarray gene expression, COL1A1; type: cell-based
Description: as §1

MMP3 [2] = test: PCR array gene expression, MMP3; type: cell-based
Description: as §1

LAMA4 = test: DNA microarray gene expression, LAMA4; type: cell-based
Description: as §1

NOX [3] = conditions: Keratinocytes
NOX [4] = conditions: UVA, Fibroblasts
COL5A1 = test: PCR array gene expression, COL5A1; type: cell-based
Description: as §1

TIMP2 = test: DNA microarray gene expression, TIMP2; type: cell-based
Description: as §1

COL11A2 = test: DNA microarray gene expression, COL11A2; type: cell-based
Description: as §1

FMOD = test: DNA microarray gene expression, FMOD; type: cell-based
Description: as §1

ELN = test: DNA microarray gene expression, ELN; type: cell-based
Description: as §1

POT1 = test: DNA microarray gene expression, POT1; type: cell-based
Description: as §1

ITGB5 = test: PCR array gene expression, ITGB5; type: cell-based
Description: as §1

COL14A1 [5] = test: DNA microarray gene expression, COL14A1; type: cell-based
Description: as §1

TIMP3 = test: PCR array gene expression, TIMP3; type: cell-based
Description: as §1

MMP3 [6] = test: DNA microarray gene expression, MMP3; type: cell-based
Description: as §1

In the case of COc1cc(CC(C(C)=O)C(C)=O)ccc1O [Compound 1, Acetyl Zingerone], the “PCR array, COL14A1 gene expression” value (COL14A1 [1]) is reported as “+2.1”, the “PCR array, ITGB3 gene expression” value (ITGB3) is reported as “+2.0” and the “UVA/% Reduction in dCPDs vs. control, 0 hr. (Reduction in iCPDs)” value (Keratinocyte; 0 hr.) is reported as “^+0 hr.: ↓14%”. For the same compound, the “UVA/% Reduction in dCPDs vs. control, 1 hr.” value (Keratinocyte; 1 hr.) was 1 hr.: ↓43%, the “UVA/% Reduction in dCPDs vs. control, 2 hr.” value (Keratinocyte; 2 hr.) was 2 hr.: ~0% and the “PCR array, COL11A1 gene expression” value (COL11A1) was “+1.9”. The IC50 (iNOS) was 194 µM, the “PCR array, ITGA2 gene expression” value (ITGA2) was “+1.6” and the “% Collagen 4 Boosting” value (Collagen type 4; 50 μg/ml) was 145%. The “% Collagen 4 Boosting” value (Collagen type 4; 100 μg/ml) was 245%, the “Plasma membrane disruption-related fluorescence (% Control)” value (human dermal fibroblasts; 6.25 ug/ml) was 125 % Control and the “Plasma membrane disruption-related fluorescence (% Control)” value (human dermal fibroblasts; 12.5 ug/ml) was 130 % Control. For the same compound, the “Plasma membrane disruption-related fluorescence (% Control)” value (human dermal fibroblasts; 25 ug/ml) was 117 % Control, the “UVA/% Reduction in dCPDs vs. control, 0 hr. (Reduction in iCPDs)” value (Fibroblasts; 0 hr.) was “^+0 hr.: ↓45%” and the “UVA/% Reduction in dCPDs vs. control, 1 hr.” value (Fibroblasts; 1 hr.) was 1 hr.: ↓20%. The “UVA/% Reduction in dCPDs vs. control, 2 hr.” value (Fibroblasts; 2 hr.) was 2 hr.: ↓18%, the “PCR array, ITGA1 gene expression” value (ITGA1) was “+2.2” and the “PCR array, COL6A1 gene expression” value (COL6A1) was “+1.5”. For the same compound, the “Microarray, MSH6 gene expression” value (MSH6) was “+2.1”, the “Microarray, COL1A1 gene expression” value (COL1A1) was “+1.6” and the “PCR array, MMP3 gene expression” value (MMP3 [2]) was −2.5. For the same compound, the “Microarray, LAMA4 gene expression” value (LAMA4) was “+1.7”, the “reduction of NOX activity” value (NOX [3]; UVA, 25 μg/ml) was −27% and the “reduction of NOX activity” value (NOX [3]; UVA, 50 μg/ml) was −38%. For the same compound, the “reduction of NOX activity” value (NOX [3]; UVB, 25 μg/ml) was −11%, the “reduction of NOX activity” value (NOX [3]; UVB, 50 μg/ml) was −29% and the “reduction of NOX activity” value (NOX [4]; 25 μg/ml) was −27%. For the same compound, the “reduction of NOX activity” value (NOX [4]; 50 μg/ml) was −33%, the “PCR array, COL5A1 gene expression” value (COL5A1) was “+2.7” and the “Microarray, TIMP2 gene expression” value (TIMP2) was “+1.5”. For the same compound, the “Microarray, COL11A2 gene expression” value (COL11A2) was “+5.2”, the “Microarray, FMOD gene expression” value (FMOD) was “+1.6” and the “Microarray, ELN gene expression” value (ELN) was “+1.7”. For the same compound, the “Microarray, POT1 gene expression” value (POT1) was “+2.9”, the “PCR array, ITGB5 gene expression” value (ITGB5) was “+1.7” and the “Microarray, COL14A1 gene expression” value (COL14A1 [5]) was “+4.3”. The “PCR array, TIMP3 gene expression” value (TIMP3) was “+2.4” and the “Microarray, MMP3 gene expression” value (MMP3 [6]) was −2.4.
